The values below come from patent US10544112B2, “Identification of ebsulfur analogues with broad-spectrum antifungal activity” (priority 2017, dated 2020).

Each structure is given as a SMILES string. In brackets after ≈: the same amount, converted by molar mass. Like-named read-outs stand apart in the source and are kept apart here. Marks after values point to notes of the source that are not given here. Some results are limits rather than exact numbers.

In data set [1] the test system is C. albicans ATCC 10231 (strain A). Nature of the data set: ROS production assay (DCFH-DA). Format: cell-based, Candida albicans. The conditions noted are these: 1× and 2× MIC (H2O2 1 mM), 1-h treatment. As to the method: ROS production assay was performed as previously described with minor modifications. […] Once entering the cells, the DCFH-DA probe is first hydrolyzed to the non-fluorescent 2′,7′-dichlorodihydrofluorescein (DCFH) by cellular esterases. […] A colony of C. albicans ATCC 10231 (strain A) was used to inoculate 5 mL of PDB in a Falcon tube and grown overnight at 35° C. at 200 rpm.
Thus, whether the compounds of the invention would also induce ROS against C. albicans was studied. […] 2′,7′-dichlorodihydrofluorescin diacetate (DCFH-DA) was then used to detect and visualize ROS production (FIG. 5). As a positive control, cells were treated with H2O2, which is an inducer of hydroxyl radical formation.

The test system of data set [2] is Aspergillus flavus ATCC MYA-3631 (strain K). Nature of the data set: Antifungal MIC determination, filamentous fungi spores. It is filed as cell-based. The conditions noted are these: all compounds. Summed up:
(§1)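 Broth microdilution per CLSI M27-A3 (modified) in RPMI 1640 buffered to pH 7.0 with 0.165 M MOPS; yeast inocula grown in PDB, Aspergillus spores from PDA cultures at 25° C. Final drug 12.5-0.02 μg/mL, inoculum 5×10^3 CFU/mL; incubation 48 h at 35° C.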

Data set [3] has as its system Aspergillus nidulans ATCC 38163 (strain L). The description is as above. It is filed as cell-based. The following applies: for MIC-0: strain L, spores. The method, boiled down:
as §1

The subject of data set [4] is Aspergillus terreus ATCC MYA-3633 (strain M). Described as above. It is filed as cell-based. The conditions noted are these: for MIC-0: strain M, all compounds, spores. Summed up: as §1
Data set [5] deals with C. albicans ATCC 90819(R) (strain D). Nature of the data set: microbe, parasite or virus in culture. It is filed as cell-based, Candida albicans. The conditions noted are these: for MIC-0: strain D, compounds 1-4n and AmB, 48 h, RPMI 1640. Summed up: (§2)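 Broth microdilution per CLSI M27-A3 with minor modifications, in RPMI 1640 buffered to pH 7.0 with 0.165 M MOPS. Yeast inocula were grown in potato dextrose broth, diluted into RPMI to 5×10^3 CFU/mL, and exposed to two-fold dilutions from 12.5-0.02 μg/mL for 48 h at 35° C.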

Data set [6] relates to C. albicans ATCC MYA-1003(R) (strain G). The data set is described as follows: microbe, parasite or virus in culture. Format: cell-based, Candida albicans. The conditions noted are these: for MIC-0: strain G, compounds 1-4n and AmB, 48 h, RPMI 1640. Summed up: as §2
Data set [7] concerns C. albicans ATCC 64124 (strain B). Nature of the data set: microbe, parasite or virus in culture. It is filed as cell-based, Candida albicans. The conditions noted are these: for MIC-0: strain B, compounds 1-4n and AmB, 48 h, RPMI 1640. Summed up:
as §2

The subject of data set [8] is C. albicans ATCC MYA-1237(R) (strain F). The data set is described as follows: microbe, parasite or virus in culture. Format: cell-based, Candida albicans. The following applies: for MIC-0: strain F, compounds 1-4n and AmB, 48 h, RPMI 1640. Summed up:
as §2

Data set [9] deals with Candida krusei ATCC 6258 (strain I). Nature of the data set: Antifungal MIC determination (CLSI M27-A3, 96-well). Format: cell-based. The following applies: for MIC-0: compounds 1-4n and AmB, 48 h, RPMI 1640; for MIC: Pichia kudriavzevii. Summed up: as §2
Data set [10] concerns Candida albicans ATCC 10231 (strain A). The description is as above. The following applies: for MIC-0: strain A, compounds 1-4n and AmB, 48 h, RPMI 1640. It is filed as cell-based. The method, boiled down:
as §2

Data set [11] deals with Candida glabrata ATCC 2001 (strain H). Described as above. Format: cell-based. The following applies: for MIC-0: compounds 1-4n and AmB, 48 h, RPMI 1640; for MIC: Nakaseomyces glabratus. The method, boiled down: as §2
For data set [12], the system named is Candida parapsilosis ATCC 22019 (strain J). The data set is described as above. The following applies: for MIC-0: compounds 1-4n and AmB, 48 h, RPMI 1640; for MIC: Lodderomyces parapsilosis. Format: cell-based. The method, boiled down:
as §2

The test system of data set [13] is C. albicans ATCC MYA-2876(S) (strain C). Described as above. It is filed as cell-based, Candida albicans. The following applies: for MIC-0: strain C, compounds 1-4n and AmB, 48 h, RPMI 1640. The method, boiled down: as §2
Data set [14] has as its system C. albicans ATCC MYA-2310(S) (strain E). The description is as above. The following applies: for MIC-0: strain E, compounds 1-4n and AmB, 48 h, RPMI 1640. Format: cell-based, Candida albicans. Summed up:
as §2

In data set [15] the test system is C. albicans ATCC 64124 (strain B). Format: cell-based, Candida albicans. As to the method: The efficiency of the compounds to kill C. albicans ATCC 64124 (strain B) was monitored using a previously published protocol. The cell suspensions were prepared to achieve an inoculum of approximately 1-4×10^5 CFU/mL in RPMI 1640 medium at 35° C. […] After fungal cell addition, at 0, 3, 6, 9, 12, and 24 h, the tubes were vortexed and 100 μL aliquots were removed from each solution, spread onto PDA plates, and incubated at 35° C. Colony counts were determined after 24 h of incubation. The experiments were performed in duplicate (FIG. 2).
Time-kill assays with ebsulfur (2a) and analogue 3a (FIG. 2) were performed to determine the rate of fungicidal activity of the compounds if the invention.

Data set [16] can be described thus: Solubility in the RPMI 1640 medium used for MIC determination. The following applies: medium of MIC determination.
Data set [17] relates to Aspergillus strains (K-M). The data set is described as follows: Antifungal MIC, summary over Aspergillus strains. It is filed as cell-based. The conditions noted are these: spores. As to the method:
Fungal MIC determination experiments were performed using untreated 96-well plates (Corning). Cells were counted either by using a hemocytometer (Hausser Scientific, Horsham, Pa., USA) or by measuring optical density at attenuance of 600 nm (OD600) by using a Genesys 20 spectrophotometer (Thermo Scientific, Waltham, Mass., USA). Spectrophotometric and colorimetric measurements in 96-well plates were performed using a SpectraMax M5 spectrometer (Molecular Devices, Sunnyvale, Calif., USA).
Yeast strains Candida albicans ATCC 10231 (strain A), C. albicans ATCC 64124 (strain B), and C. albicans ATCC MYA-2876(S) (strain C) were kindly provided by Dr. Jon Y. Takemoto (Utah State University, Logan, UT, USA). C. albicans ATCC MYA-90819(R) (strain D), C. albicans ATCC MYA-2310(S) (strain E), C. albicans ATCC 1237(R) (strain F), C. albicans ATCC MYA-1003(R) (strain G), Candida glabrata ATCC 2001 (strain H), Candida krusei ATCC 6258 (strain I), and Candida parapsilosis ATCC 22019 (strain J) were obtained from the American Type Culture Collection (ATCC, Manassas, Va., USA). […]
The MIC values against fungal strains were determined based on a previously published protocol. MIC values for ebsulfur (2a) analogues against fungal cells were evaluated in 96-well plates as described in the CLSI document M27-A3 with minor modifications. […]

For data set [18], the system named is C. albicans ATCC MYA-1237(R) (strain F). The conditions noted are these: azoles, previously reported (Shrestha 2015); cited from earlier work.
Data set [19] deals with C. albicans ATCC 90819(R) (strain D). The following applies: azoles, previously reported (Shrestha 2015); cited from earlier work.
Data set [20] relates to C. albicans ATCC MYA-2310(S) (strain E). The conditions noted are these: azoles, previously reported (Shrestha 2015); cited from earlier work.
Data set [21] has as its system Aspergillus nidulans ATCC 38163 (strain L). The following applies: azoles, previously reported (Shrestha 2015); cited from earlier work.
In data set [22] the test system is C. albicans ATCC MYA-1003(R) (strain G). The conditions noted are these: azoles, previously reported (Shrestha 2015); cited from earlier work.
In data set [23] the test system is C. albicans ATCC 64124 (strain B). The following applies: azoles, previously reported (Shrestha 2015); cited from earlier work.
Data set [24] relates to Candida albicans ATCC 10231 (strain A). The conditions noted are these: azoles, previously reported (Shrestha 2015); cited from earlier work.
Data set [25] deals with C. albicans ATCC MYA-2876(S) (strain C). The conditions noted are these: azoles, previously reported (Shrestha 2015); cited from earlier work.
[26] abbreviates: Candida albicans, read-out: MIC-2.

Take `O=c1c2ccccc2[se]n1-c1ccccc1` [Compound 1, ebselen, reference compound]: the “ROS induction (DCFH-DA fluorescence)” value in data set [1] was “highly fluorescent”. In addition, the MIC-0 is 6.25 µg/mL (≈ 22.8 µM) in data set [2]; 1.56 µg/mL (≈ 5.69 µM) in [3]; 1.56 µg/mL (≈ 5.69 µM) in data set [4]; 1.56 µg/mL (≈ 5.69 µM) in data set [5]; 12.5 µg/mL (≈ 45.6 µM) in [6]; 12.5 µg/mL (≈ 45.6 µM) in [7]. Further, the MIC-0 in data set [8] was over 12.5 µg/mL; in data set [9] (strain I), 1.56 µg/mL (≈ 5.69 µM); in data set [10] it was 12.5 µg/mL (≈ 45.6 µM); in data set [11] (strain H) it was 1.56 µg/mL (≈ 5.69 µM); in data set [12] (strain J) it was 6.25 µg/mL (≈ 22.8 µM); in data set [13], 12.5 µg/mL (≈ 45.6 µM). In [14], the MIC-0 came out at 3.13 µg/mL (≈ 11.4 µM). The “fungicidal or fungistatic effect” value in data set [15] (1× MIC) is given as “potent fungicidal activity”. In addition, the “time of complete fungal cell death” value in data set [15] (1× MIC) worked out at 6 h. In addition, the “time from which completely fungicidal” value in data set [15] (2× MIC) is on record as 3 h.
Consider `O=c1c2ccccc2sn1-c1ccc2ccccc2n1` [Compound 2o], for which the “solubility in the RPMI 1640 medium” value in [16] is “solubility issues”.
Turning to `O=c1c2ccccc2sn1C1CCCCCCC1` [Compound 3n], the MIC-0 was at most 0.02 µg/mL in data set [2]; 0.05 µg/mL (≈ 0.191 µM) in [3]; at most 0.02 µg/mL in data set [4]; 6.25 µg/mL (≈ 23.9 µM) in data set [5]; 6.25 µg/mL (≈ 23.9 µM) in data set [6]; 3.13 µg/mL (≈ 12 µM) in data set [7]. In addition, the MIC-0 was found to be 6.25 µg/mL (≈ 23.9 µM) in data set [8]; 0.39 µg/mL (≈ 1.49 µM) in [9] (strain I); 3.13 µg/mL (≈ 12 µM) in data set [10]; 3.13 µg/mL (≈ 12 µM) in data set [11] (strain H); 3.13 µg/mL (≈ 12 µM) in [12] (strain J); 6.25 µg/mL (≈ 23.9 µM) in [13]. In [14], this compound showed an MIC-0 of 6.25 µg/mL (≈ 23.9 µM). Further, the “MIC against Aspergillus strains K-M, range” value in data set [17] was at most 0.02 to 0.05 µg/mL.
In the case of `O=c1c2ccccc2sn1C12CC3CC(CC(C3)C1)C2` [Compound 3o], in data set [16], the “solubility in the RPMI 1640 medium” value is “not soluble”.
With `OC(Cn1cncn1)(Cn1cncn1)c1ccc(F)cc1F` [FLC, fluconazole], the MIC-2 is 62.5^a μg/mL in data set [18]; >125^a μg/mL in data set [19]; >125^a μg/mL in data set [20]; 62.5^a μg/mL in data set [22]; >125^a μg/mL in data set [23]; 62.5^a μg/mL in [24]. Besides, the MIC-2 in data set [25] was 15.6^a μg/mL. In addition, the MIC was 6.25 µg/mL (≈ 20.4 µM) in data set [2] (Aspergillus flavus, read-out: MIC-0); over 31.2 µg/mL in [9] (ATCC6258, strain I, azoles, read-out: MIC-2); over 31.2 µg/mL in [11] (ATCC2001, strain H, azoles, read-out: MIC-2); 1.95 µg/mL (≈ 6.37 µM) in data set [12] (ATCC22019, strain J, azoles, read-out: MIC-2). In data set [21], the MIC-0 is 6.25^a μg/mL.
Regarding `C[C@@H](c1ncncc1F)[C@](O)(Cn1cncn1)c1ccc(F)cc1F` [VOR, voriconazole, reference compound], the MIC was 0.03 µg/mL (≈ 0.0859 µM) in data set [3] (Aspergillus nidulans, ATCC38163, read-out: MIC-0); 0.12 µg/mL (≈ 0.344 µM) in [4] (Aspergillus terreus, read-out: MIC-0); 1.95 µg/mL (≈ 5.58 µM) in data set [5] (Candida albicans, ATCC90819, read-out: MIC-2); 7.8 µg/mL (≈ 22.3 µM) in data set [6] (setting [26]); over 31.2 µg/mL in data set [7] (Candida albicans, ATCC64124, read-out: MIC-2); 0.975 µg/mL (≈ 2.79 µM) in [8] (setting [26]). The MIC is 0.12 µg/mL (≈ 0.344 µM) in [9] (ATCC6258, read-out: MIC-2); 7.8 µg/mL (≈ 22.3 µM) in [10] (Candida albicans, ATCC10231, read-out: MIC-2); 0.06 µg/mL (≈ 0.172 µM) in [11] (ATCC2001, read-out: MIC-2); under 0.03 µg/mL in data set [12] (ATCC22019, read-out: MIC-2); 0.975 µg/mL (≈ 2.79 µM) in data set [13] (setting [26]); 1.95 µg/mL (≈ 5.58 µM) in data set [14] (setting [26]). The “MIC against Aspergillus strains K-M, range” value in data set [17] was 0.03 to 0.24 µg/mL.
